Experimental data reported in PubChem BioAssay AID2060505 (Molecular Pharmacology Branch, DTP, NCI, 2025).

System: 633275-114-R-J1-PDC complex spheroids, viability
Assay: Anticancer human tumor 633275-114-R-J1-PDC patient-derived endometrial adenocarcinoma cell line growth inhibition [GQUAD]
Conditions: for IC50: curve of first compound; for viability, T/C: stronger effect = lower value; active = viability on the fitted dose curve at most 10% of control; inactive = the rest
Source text: DNA G-quadruplex Stabilizer Agents in Combinations in Complex Spheroids
A high-throughput screen of multi-cell type tumor spheroids was designed to identify active combinations of DNA G-quadruplex stabilizer agents and targeted small molecules. Complex spheroids include a stromal component modeled by human endothelial cells (HUVEC) and fibroblasts modeled by human mesenchymal stem cells (MSCs). The concentration ranges selected for each drug and investigational agent were based upon clinically achievable concentrations if the clinical Cmax of the agent was known.
Compounds. The drugs and investigational agents: pidnarulex (CX-5461; NSC782164), APTO-253 (NSC789042), BRACO-19 (NSC847499), peposertib (NSC802822), ceralasertib (NSC780249), elimusertib (NSC800525), camonsertib (NSC841442), AZD-1390 (NSC803789), olaparib (NSC753686), talazoparib (NSC767125), ART-558 (NSC835418), sotorasib (NSC818433), MRTX-1133 (NSC836407), SN-38 (NSC673596), topotecan (NSC609699), etoposide (NSC141540), doxorubicin (NSC123127), gemcitabine (NSC613327), 5-fluorouracil (NSC19893), paclitaxel (NSC125973), vemurafenib (NSC761431), panobinostat (NSC761190), R-306465 (JNJ-16241199; NSC773264), adavosertib (NSC754352), TP-3654 (NSC805149), carboplatin (NSC241240), KSQ-4279 (NSC840948), and staurosporine (NSC755774) were obtained from the National Cancer Institute (NCI) Developmental Therapeutics Program Chemical Repository (34). The FDA-approved anticancer drug set is available from the NCI Developmental Therapeutics Program. […] The stock solutions were prepared in dimethyl sulfoxide (DMSO, Sigma-Aldrich, St. Louis, MO, cat. D2650) at 800-fold the tested concentration and stored at -70 degrees C prior to their use. All drugs and investigational agents were tested over a range starting from a high concentration at or near the clinical Cmax and decreasing in half-log increments. If the clinical Cmax for an agent had not been determined, the highest concentration tested was 10 microM.
2.3 Cell Culture. All cells were maintained in an incubator at 37 degrees C and 5% CO2 with 95% humidity. The PDC lines were cultured according to standard operating procedures established by the NCI PDMR. All PDCs were thawed and cultured in Matrigel-coated flasks prepared with a working solution of 1X Ham's F-12 nutrient mix, without supplementation (Invitrogen, cat. 11765054), 100 U/mL penicillin-streptomycin (Invitrogen, cat. 15140122), and 2.5% Matrigel (Corning Inc., cat. 354248) for the first three passages. The 857933-349-R-J2-PDC line was cultured in 6C/Colon 1B media, which includes advanced DMEM/F-12 (Thermo Fisher Scientific, cat. 12634028), 10 mM HEPES (Thermo Fisher Scientific, cat. 15630080), 1X GlutaMAX supplement (Thermo Fisher Scientific, cat. 35050061), 0.1 mg/mL primocin (InvivoGen, cat. ant-pm-2), 10% defined fetal bovine serum, heat inactivated (HyClone Laboratories Inc., cat. SH30070.03HI), 50% L-WRN conditioned media (ATCC, cat. CRL-3276), 1.25 mM N-Acetyl-L-cysteine (Sigma-Aldrich, cat. A9165), 10 mM nicotinamide (Sigma-Aldrich, cat. N0636), 1X B-27 supplement (Thermo Fisher Scientific, cat. 17504044), 1X N-2 supplement (Thermo Fisher Scientific, cat. 17502048), 10 microM Y-27632 dihydrochloride (Tocris Bioscience, cat. 1254), and 50 ng/mL human EGF recombinant protein (Thermo Fisher Scientific, cat. PHG0311). The 485176-168-R4-J1-PDC line was cultured in Panc media, which includes all 6C/Colon 1B media components plus 100 ng/mL human FGF-10 (Thermo Fisher Scientific, cat. 100-26), 500 nM SB-431542 (Selleckchem, cat. S1067), and gastrin (Tocris, cat. 3006).
[…]

[1] = second compound 0.0316 µM, first compound 0.0316 µM
[2] = second compound 0.0316 µM, first compound 0.1 µM
[3] = second compound 0.0316 µM, first compound 0.316 µM
[4] = second compound 0.0316 µM, first compound 1 µM
[5] = second compound 0.0316 µM, first compound 3.16 µM
[6] = second compound 0.0316 µM, first compound 10 µM
[7] = second compound 0.1 µM, first compound 0.0316 µM
[8] = second compound 0.1 µM, first compound 0.1 µM
[9] = second compound 0.1 µM, first compound 0.316 µM
[10] = second compound 0.1 µM, first compound 1 µM
[11] = second compound 0.1 µM, first compound 3.16 µM
[12] = second compound 0.1 µM, first compound 10 µM
[13] = second compound 0.316 µM, first compound 0.0316 µM
[14] = second compound 0.316 µM, first compound 0.1 µM
[15] = second compound 0.316 µM, first compound 0.316 µM
[16] = second compound 0.316 µM, first compound 1 µM
[17] = second compound 0.316 µM, first compound 3.16 µM
[18] = second compound 0.316 µM, first compound 10 µM
[19] = second compound 1 µM, first compound 0.0316 µM
[20] = second compound 1 µM, first compound 0.1 µM
[21] = second compound 1 µM, first compound 0.316 µM
[22] = second compound 1 µM, first compound 1 µM
[23] = second compound 1 µM, first compound 3.16 µM
[24] = second compound 1 µM, first compound 10 µM
[25] = second compound 3.16 µM, first compound 0.0316 µM
[26] = second compound 3.16 µM, first compound 0.1 µM
[27] = second compound 3.16 µM, first compound 0.316 µM
[28] = second compound 3.16 µM, first compound 1 µM
[29] = second compound 3.16 µM, first compound 3.16 µM
[30] = second compound 3.16 µM, first compound 10 µM
[31] = second compound 10 µM, first compound 0.0316 µM
[32] = second compound 10 µM, first compound 0.1 µM
[33] = second compound 10 µM, first compound 0.316 µM
[34] = second compound 10 µM, first compound 1 µM
[35] = second compound 10 µM, first compound 3.16 µM
[36] = second compound 10 µM, first compound 10 µM
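Note: spheroids exposed to the agents for seven days.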
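Throughout, for viability, T/C: percent of DMSO vehicle control viability which is 100%.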

CC(C)n1c(=O)n(C)c2cnc3cc(F)c(-c4ccc(OCCCN5CCCCC5)nc4)cc3c21 + CN(C)c1ccc(Nc2c3ccc(NC(=O)CCN4CCCC4)cc3nc3cc(NC(=O)CCN4CCCC4)ccc23)cc1
< 31.6 nM: IC50 (second compound 10 µM)
inactive: viability, T/C [1] 115% | viability, T/C [2] 109% | viability, T/C [3] 102% | viability, T/C [4] 109% | viability, T/C [5] 102% | viability, T/C [6] 67.9% | viability, T/C [7] 102% | viability, T/C [8] 115% | viability, T/C [9] 98.2% | viability, T/C [10] 97.4% | viability, T/C [11] 97.4% | viability, T/C [12] 65.1% | viability, T/C [13] 102% | viability, T/C [14] 104% | viability, T/C [15] 98.7% | viability, T/C [16] 101% | viability, T/C [17] 86.1% | viability, T/C [18] 70.7% | viability, T/C [19] 99.8% | viability, T/C [20] 98.3% | viability, T/C [21] 113% | viability, T/C [22] 78.4% | viability, T/C [23] 85.1% | viability, T/C [24] 63.5% | viability, T/C [25] 84.4% | viability, T/C [26] 81.2% | viability, T/C [27] 60.4% | viability, T/C [28] 64.5% | viability, T/C [29] 50.3% | viability, T/C [30] 32.3% | viability, T/C [31] 29% | viability, T/C [32] 28.8% | viability, T/C [33] 22.1% | viability, T/C [34] 21.5% | viability, T/C [35] 17.9% | viability, T/C [36] 9.88%
2550 nM: IC50 (second compound 3.16 µM)
> 10000 nM: IC50 (second compound 0.0316 µM) | IC50 (second compound 0.1 µM) | IC50 (second compound 0.316 µM) | IC50 (second compound 1 µM)

CC1COCCN1c1cc(-c2ccnn2C)c2ccnc(-c3ccn[nH]3)c2n1 (centres undefined) + CN(C)c1ccc(Nc2c3ccc(NC(=O)CCN4CCCC4)cc3nc3cc(NC(=O)CCN4CCCC4)ccc23)cc1
136 nM: IC50 (second compound 0.0316 µM)
active: viability, T/C [36] 9.22%
90.5 nM: IC50 (second compound 3.16 µM)
inactive: viability, T/C [1] 77% | viability, T/C [2] 54.4% | viability, T/C [3] 37.3% | viability, T/C [4] 26.1% | viability, T/C [5] 18% | viability, T/C [6] 18.4% | viability, T/C [7] 92.4% | viability, T/C [8] 59.6% | viability, T/C [9] 37.1% | viability, T/C [10] 24.8% | viability, T/C [11] 18.9% | viability, T/C [12] 18.9% | viability, T/C [13] 82.2% | viability, T/C [14] 61.1% | viability, T/C [15] 37.7% | viability, T/C [16] 25.9% | viability, T/C [17] 19.4% | viability, T/C [18] 14.9% | viability, T/C [19] 74.1% | viability, T/C [20] 55.2% | viability, T/C [21] 38.3% | viability, T/C [22] 23.5% | viability, T/C [23] 18.1% | viability, T/C [24] 16.2% | viability, T/C [25] 60.3% | viability, T/C [26] 49.6% | viability, T/C [27] 33.4% | viability, T/C [28] 22.2% | viability, T/C [29] 15.8% | viability, T/C [30] 11.4% | viability, T/C [31] 30.3% | viability, T/C [32] 23.5% | viability, T/C [33] 15.9% | viability, T/C [34] 12.5% | viability, T/C [35] 10.4%
175 nM: IC50 (second compound 0.316 µM)
163 nM: IC50 (second compound 0.1 µM)
144 nM: IC50 (second compound 1 µM)
< 31.6 nM: IC50 (second compound 10 µM)
